Laboratory results as given in patent US6972111B1, “Rosin amine anti-fouling agents” (Bayer Aktiengesellschaft, priority 1999, dated 2005).

System: cyprid larvae of the barnacle Balanus amphitrite
Experiment: Settlement assay of cyprid larvae of the barnacle Balanus amphitrite
Assay type: in vivo
Conditions: cyprid larvae in seawater test solution, 27° C.±2; Spearman-Kärber method
Protocol: The rate of settlement of laboratory reared cyprid larvae of the barnacle Balanus amphitrite was determined for testing the activity of candidate anti-fouling compounds. Settlement Assay Tests are carried out in four replicates in sterile polystyrene multi well plates. Between 25 and 40 cyprid larvae are injected in the dishes containing either 2 ml of test solution (see below), solvent control or a positive control (Dichloro-n-octyl-isothiazolinone). Dishes are incubated for 24 h at a temperature of 27° C.±2. After incubation the cyprids are screened for signs of toxicity. Larvae are classified in three categories: A) alive and swimming; B) alive but not active; C) dead. The test is terminated by addition of a drop of 20% formaldehyde and the numbers of settled and non-settled larvae are counted. Settlement is evaluated as follows: 1) Non settled: not attached free swimming cyprids; 2) settled cyprids: attached, but not metamorphosed cyprids; 3) barnacles: attached juvenile barnacles. Categories 2 and 3 are considered to be settled. Percentage settlement in test solution is compared with controls. Estimates of the median effect concentration (EC-50) after […]. are calculated using the Spearman-Kärber method. All seawater used is of natural origin and filtered unto 0.2 micron. […]

CCCCCCCCn1sc(Cl)c(Cl)c1=O [reference*, 4,5-dichloro-n-octylisothiazolinone]
EC50 for settlement inhibition in ppm: 0.37 ppm
